Source: patent US10172869B2, “Progesterone receptor modulators for use in the therapy of uterine fibroids” (PregLem SA, priority 2013, dated 2019)

How the values were obtained:
Type in all cases: in vivo, human
uterine fibroids [1] = test: Example 1 Phase III study: uterine bleeding, amenorrhea and return of menstruation (PBAC)
Protocol: (§1) Multicenter, Phase III Study to Investigate the Efficacy and Safety of 3-Months of Treatment with UPA Followed by 10 Days of Treatment with NETA or Placebo
(§2) All patients received a 3-month treatment course of UPA 10 mg once-daily followed by randomized oral NETA 10 mg once-daily or matching placebo for 10 days. UPA treatment was started during the first 4 days of menstruation. NETA or placebo was taken daily for the first 10 days following the cessation of UPA. The schedule incorporated the potential for women to enter an extension study involving repeated intermittent courses of UPA 10 mg.
(§3) In the clinical trial the effect of treatment of uterine fibroids have been assessed by means of parameters such as uterine bleeding using the pictorial blood-loss assessment chart (PBAC), condition of the uterus using transvaginal ultrasound (TVUS) and endometrial biopsy, endometrial histology using endometrial biopsy and pain using the Short-Form McGill Pain Questionnaire (SF-MPQ and quality of life using the Uterine Fibroid Symptom and Health-Related Quality of Life (UFS-QoL) questionnaire.
(§4) The efficacy end points were: percentage of amenorrheic patients at the end of UPA treatment; change from baseline in the volume of the three largest myomas to end of UPA treatment and 2 weeks after menstruation following end of NETA/placebo treatment; and change from baseline in pain and QoL to end of UPA treatment.
(§5) Exploratory endpoints included assessment of the strength of the first menstruation after UPA treatment (using PBAC), time to return of menstruation following treatment end, and frequency of post-treatment PAEC observed in the endometrial biopsy after return of menstruation.

uterine fibroids [2] = test: Example 1 Phase III study: volume of the three largest fibroids (TVUS)
Protocol: as §1, §2, §3, §4

uterine fibroids [3] = test: Example 1 Phase III study: pain (SF-MPQ, VAS) and quality of life (UFS-QoL); conditions: for pain assessed by the VAS, median change in score: median baseline 38
Protocol: as §1, §2, §3, §4

[4] = Example 1 Phase III study: adverse events (TEAEs, SAEs)
Protocol: as §1, §2
(§6) The safety endpoints included the number and proportion of patients experiencing treatment-emergent adverse events (TEAEs), including clinically significant changes in vital signs, physical examination, gynecological or breast examination, electrocardiogram (ECG), ovarian ultrasound, changes from baseline in endometrial thickness and clinically significant changes in endometrium biopsy. Other safety endpoints were change from baseline in hematology, coagulation, biochemistry, lipids, adrenocorticotropic hormone (ACTH), thyroid stimulating hormone (TSH) and prolactin, as well as serum levels of estradiol (E2).

[5] = Example 1 Phase III study: serum hormones and biochemistry (E2, ACTH, TSH, prolactin, transaminases)
Protocol: as §1, §2, §6

endometrium [6] = test: Example 1 Phase III study: endometrial histology (biopsy)
Protocol: as §1, §2, §3, §6, §5

endometrium [7] = test: Example 1 Phase III study: endometrial thickness
Protocol: as §1, §2, §6

[8] = test system: myomas and heavy uterine bleeding; test: Example 2 long-term extension study: uterine bleeding, amenorrhea and return of menstruation (PBAC); conditions: for subjects with more than 9 days of any level of bleeding (heavy bleeding, bleeding or spotting) / percentage of subjects in amenorrhea: ITT Population; for mean time to amenorrhea / median time to amenorrhea: from first dose of UPA in the course
Text: (§7) Long-Term Extension of a Multicenter, Phase III Study to Investigate the Efficacy and Safety of 3-Months of Treatment with UPA Followed by 10 Days of Treatment with NETA or Placebo in Subjects with Myomas and Heavy Uterine Bleeding
(§8) The study consisted of three periods of 3 months open-label UPA treatment, each followed by 10 days of double-blind treatment with NETA or placebo and then a drug-free period. Subjects were randomly assigned to a NETA or matching placebo arm with a 1:1 ratio.
In study described in Example 1, 251 subjects were screened at 21 sites and 209 subjects started treatment with UPA of which 202 attended the end of UPA treatment visit. Of those that completed study of Example 1 (190 subjects), 132 subjects from 19 sites opted to continue in to the extension study.
(§9) In the study of Example 1 and for each present study courses, UPA 10 mg was orally administered once daily for a period of 90 days, followed by 10 mg NETA or matching placebo once daily for a period of 10 days. The first treatment course in the present study consisted of 90 days UPA 10 mg treatment followed by 10 days of double-blind treatment (same as in Example 1 study) started between the first and fourth day of menstruation (inclusive) following visit after the end of treatment, or one month later if uterine sparing surgery had been performed and myomas were still present. The second and third treatment courses of the present study started on the first day of menstruation following visits after ends of each treatment courses, respectively.
(§10) Parameters assessed are the same as it was described in Example 1.

myomas = test: Example 2 long-term extension study: volume of the 3 largest myomas and uterine volume
Text: as §7, §8, §9, §10

[9] = test system: myomas and heavy uterine bleeding; test: Example 2 long-term extension study: pain (SF-MPQ) and quality of life (UFS-QoL, EQ-5D)
Text: as §7, §8, §9, §10

[10] = test system: myomas and heavy uterine bleeding; test: Example 2 long-term extension study: surgery undertaken compared to planned; conditions: by the end of study; ITT population of 132, surgery initially planned for 66 (50%)
Text: as §7, §8, §9

[11] = Example 2 long-term extension study: safety assessments (TEAEs, SAEs); conditions: intermittent repeated administration schedule
Text: as §7, §8, §9, §10

endometrium [12] = test: Example 2 long-term extension study: endometrium thickness and endometrium biopsy
Text: as §7, §8, §9, §10

[13] = from day 10 until end of treatment
[14] = from first day of menstruation on, or just prior to, first dose of UPA
[15] = follow-up visit, approximately 2 weeks after the third menstruation following 4th treatment course

CC(=O)O[C@]1(C(C)=O)CC[C@H]2[C@@H]3CCC4=CC(=O)CCC4=C3[C@@H](c3ccc(N(C)C)cc3)C[C@@]21C [UPA, 17α-acetoxy-11β[4-N,N-dimethylamino-phenyl)-19-norpregna-4,9-diene-3,20-dione]
percentage of amenorrheic patients (uterine fibroids [1]; end of 3-month UPA 10 mg once-daily treatment): 78.5%
overall total median change in PBAC score (uterine fibroids [1]; first menstruation following treatment completion compared to baseline, median baseline score 216): −91.5
patients on any particular day reporting any bleeding (uterine fibroids [1]; [13]): < 5%
patients on any particular day reporting heavy bleeding (uterine fibroids [1]; [13]): < 2%
mean time to amenorrhea (uterine fibroids [1]; [14]): 10.6 days
median time to amenorrhea (uterine fibroids [1]; [14]): 5.0 days
median change in the combined volume of the largest three fibroids (uterine fibroids [2]; after UPA treatment and return of menstruation): −45.8%
median change in the combined volume of the largest three fibroids (uterine fibroids [2]; between baseline and end of UPA treatment): −45.1%
women with a ≥25% reduction in the volume of the three largest fibroids (uterine fibroids [2]; in vivo): 74.7%
pain, median change from baseline score (uterine fibroids [3]; Week 5): −5.0
pain assessed by the VAS, median change in score (uterine fibroids [3]; Week 5): −21
pain, median change from baseline score (uterine fibroids [3]; Week 9): −6.0
pain assessed by the VAS, median change in score (uterine fibroids [3]; Week 9): −26
QoL symptom severity, median change from baseline score (uterine fibroids [3]; after UPA treatment): −34.4
health-related QoL (HRQL) total score, median increase compared to baseline (uterine fibroids [3]; after UPA treatment): 28.5
pain, median change from baseline score (uterine fibroids [3]; end of UPA treatment): −6.0
pain assessed by the VAS, median change in score (uterine fibroids [3]; end of UPA treatment): −25
SAE during the UPA treatment phase ([4]; UPA treatment phase): No SAE occurred
serious adverse events (SAEs) during the study ([4]; all post-treatment, considered not related to study medication): Three serious adverse events (SAEs) were reported for two patients
TEAE breast discomfort/tenderness, women ([4]; during UPA treatment): 3.8%
TEAE fatigue, women ([4]; during UPA treatment): 4.3%
TEAE headache, women ([4]; during UPA treatment): 16.3%
TEAE hot flushes, women ([4]; during UPA treatment): 4.8%
TEAE lower abdominal pain, women ([4]; during UPA treatment): 3.3%
TEAE nasopharyngitis, women ([4]; during UPA treatment): 6.7%
TEAE nausea, women ([4]; during UPA treatment): 3.8%
TEAE pelvic pain, women ([4]; during UPA treatment): 3.8%
TEAE vertigo, women ([4]; during UPA treatment): 3.8%
TEAEs classified as severe ([4]; during UPA treatment): 3.8%
women with TEAEs ([4]; during UPA treatment): 57.4%
women with TEAEs considered to be UPA related ([4]; during UPA treatment): 29.7%
mean E2 level ([5]; Visit 5, during UPA treatment, screening mean 149.9 pg/mL): 81.6 pg/mL
median E2 level ([5]; Visit 5, during UPA treatment, screening median 120.0 pg/mL): 55.0 pg/mL
changes in ACTH, TSH, or prolactin ([5]; during UPA treatment): No significant changes
hepatic transaminases ([5]; small number of patients, all resolved during continued treatment and/or by follow-up visit): marginal increase
percentage of non-physiological endometrial features (endometrium [6]; after treatment, 10.9% at screening): 25.6%
endometrial histology (endometrium [6]; biopsy 12 weeks after UPA treatment (n=38)): benign endometrial histology in all biopsies
endometrial histology (endometrium [6]; following double-blind treatment): benign in all cases
percentage of women with endometrial thickness >16 mm (endometrium [7]; end of UPA treatment, 1.5% at screening): 9.1%
patients with endometrial thickness >16 mm (endometrium [7]; three months later): none of the patients assessed had a thickness >16 mm
subjects with more than 9 days of any level of bleeding (heavy bleeding, bleeding or spotting) ([8]; days 9-90, treatment course 1): 15.9%
subjects with more than 9 days of any level of bleeding (heavy bleeding, bleeding or spotting) ([8]; days 9-90, treatment course 2): 6.3%
subjects with more than 9 days of any level of bleeding (heavy bleeding, bleeding or spotting) ([8]; days 9-90, treatment course 3): 3.4%
subjects with more than 9 days of any level of bleeding (heavy bleeding, bleeding or spotting) ([8]; days 9-90, treatment course 4): 3.9%
percentage of subjects in amenorrhea ([8]; end of treatment course 1): 79.5%
percentage of subjects in amenorrhea ([8]; end of treatment course 2): 88.5%
percentage of subjects in amenorrhea ([8]; end of treatment course 3): 88.2%
percentage of subjects in amenorrhea ([8]; end of treatment course 4): 89.7%
return to menstruation ([8]; following the end of each treatment course): al but 4 subjects with available data returned to menstruation
mean time to amenorrhea ([8]; treatment course 1): 9.4 days
median time to amenorrhea ([8]; treatment course 1): 4.0 days
mean time to amenorrhea ([8]; treatment course 2): 3.3 days
median time to amenorrhea ([8]; treatment course 2): 2.0 days
mean time to amenorrhea ([8]; treatment course 3): 5.3 days
median time to amenorrhea ([8]; treatment course 3): 3.0 days
mean time to amenorrhea ([8]; treatment course 4): 4.2 days
median time to amenorrhea ([8]; treatment course 4): 3.0 days
uterine volume measured by US (myomas; during the study, maintained after end of treatment): decreased during the study
total volume of the 3 largest myomas, mean percent change from screening (myomas; end of 4th treatment course): −53.53%
total volume of the 3 largest myomas, median percent change from screening (myomas; end of 4th treatment course): −72.08%
total volume of the 3 largest myomas, mean percent change from screening (myomas; [15]): −33.68%
total volume of the 3 largest myomas, median percent change from screening (myomas; [15]): −58.84%
patient-reported pain, 3 SF-MPQ Parts ([9]; all visits): improvement from baseline at all visits
UFS-QoL average symptom severity score ([9]; compared to baseline): improvement (decrease) from baseline
UFS-QoL HRQL total score ([9]; on average, compared to baseline): improvement (increase)
ED-5D questionnaire, pain/discomfort and anxiety/depression dimensions ([9]; throughout the study): improvement was sustained throughout the study
subjects for whom surgery was not performed [10]: 94.7%
safety and tolerability assessment [11]: well tolerated
endometrium biopsy diagnosis by consensus review (endometrium [12]; all biopsy samples, 3 independent pathologists): diagnosis of benign endometrium
incidence of non-physiological changes in endometrium biopsy samples (endometrium [12]; epithelial changes, unusual vascular changes, extensive cyst formation): highest in samples taken following first treatment course and second treatment course
endometrium thickness (endometrium [12]; following a single treatment course of 3 months UPA): an increase in endometrium thickness was observed
frequency of PAEC (endometrium [12]; long-term repeated administration): independent of length of treatment
